ChEMBL document CHEMBL1629583, “Establishment of in vitro susceptibility testing methodologies and comparative activities of piperacillin in combination with the penem {beta}-lactamase inhibitor BLI-489” (2009)
Converted amounts (≈) assume the structure as drawn.

Experiments:
Type in all cases: functional
[1] = test system: Staphylococcus aureus; experiment: Antimicrobial activity against methicillin-resistant Staphylococcus aureus clinical isolate after 18 to 22 hrs by broth microdilution method
[2] = test system: Staphylococcus aureus; experiment: Antimicrobial activity against methicillin-susceptible Staphylococcus aureus clinical isolate after 18 to 22 hrs by broth microdilution method
[3] = test system: Staphylococcus epidermidis; experiment: Antimicrobial activity against methicillin-resistant Staphylococcus epidermidis clinical isolate after 18 to 22 hrs by broth microdilution method
[4] = test system: Staphylococcus epidermidis; experiment: Antimicrobial activity against methicillin-susceptible Staphylococcus epidermidis clinical isolate after 18 to 22 hrs by broth microdilution method
[5] = test system: Staphylococcus haemolyticus; experiment: Antimicrobial activity against Staphylococcus haemolyticus clinical isolate after 18 to 22 hrs by broth microdilution method
[6] = test system: Enterococcus faecalis; experiment: Antimicrobial activity against Enterococcus faecalis clinical isolate after 18 to 22 hrs by broth microdilution method
[7] = test system: Enterococcus faecium; experiment: Antimicrobial activity against Enterococcus faecium clinical isolate after 18 to 22 hrs by broth microdilution method
[8] = test system: Enterococcus faecalis; experiment: Antimicrobial activity against vancomycin-resistant Enterococcus faecalis clinical isolate after 18 to 22 hrs by broth microdilution method
[9] = test system: Enterococcus faecium; experiment: Antimicrobial activity against vancomycin-resistant Enterococcus faecium clinical isolate after 18 to 22 hrs by broth microdilution method
[10] = test system: Enterococcus avium; experiment: Antimicrobial activity against Enterococcus avium clinical isolate after 18 to 22 hrs by broth microdilution method
[11] = test system: Streptococcus pneumoniae; experiment: Antimicrobial activity against penicillin-susceptible Streptococcus pneumoniae clinical isolate after 18 to 22 hrs by broth microdilution method
[12] = test system: Streptococcus pneumoniae; experiment: Antimicrobial activity against penicillin-intermediate Streptococcus pneumoniae clinical isolate after 18 to 22 hrs by broth microdilution method
[13] = test system: Streptococcus pneumoniae; experiment: Antimicrobial activity against penicillin-resistant Streptococcus pneumoniae clinical isolate after 18 to 22 hrs by broth microdilution method
[14] = test system: Streptococcus pyogenes; experiment: Antimicrobial activity against Streptococcus pyogenes clinical isolate after 18 to 22 hrs by broth microdilution method
[15] = test system: Enterococcus casseliflavus; experiment: Antimicrobial activity against Enterococcus casseliflavus clinical isolate after 18 to 22 hrs by broth microdilution method
[16] = test system: Enterococcus durans; experiment: Antimicrobial activity against Enterococcus durans clinical isolate after 18 to 22 hrs by broth microdilution method
[17] = test system: Enterococcus gallinarum; experiment: Antimicrobial activity against Enterococcus gallinarum clinical isolate after 18 to 22 hrs by broth microdilution method
[18] = test system: Enterococcus hirae; experiment: Antimicrobial activity against Enterococcus hirae clinical isolate after 18 to 22 hrs by broth microdilution method
[19] = test system: Streptococcus agalactiae; experiment: Antimicrobial activity against Streptococcus agalactiae clinical isolate after 18 to 22 hrs by broth microdilution method

CN[C@H](CC(C)C)C(=O)N[C@H]1C(=O)N[C@@H](CC(N)=O)C(=O)N[C@H]2C(=O)N[C@H]3C(=O)N[C@H](C(=O)N[C@H](C(=O)O)c4cc(O)cc(O)c4-c4cc3ccc4O)[C@H](O)c3ccc(c(Cl)c3)Oc3cc2cc(c3O[C@@H]2O[C@H](CO)[C@@H](O)[C@H](O)[C@H]2O[C@H]2C[C@](C)(N)[C@H](O)[C@H](C)O2)Oc2ccc(cc2Cl)[C@H]1O [VANCOMYCIN] was tested, and the MIC50 [1] was 1 µg/mL (≈ 0.69 µM), the MIC90 [1] was 1 µg/mL (≈ 0.69 µM) and the MIC50 [2] was 0.5 µg/mL (≈ 0.345 µM). For the same compound, the MIC90 [2] was 1 µg/mL (≈ 0.69 µM), the MIC50 [3] was 2 µg/mL (≈ 1.38 µM) and the MIC90 [3] was 2 µg/mL (≈ 1.38 µM). The MIC50 [4] was 1 µg/mL (≈ 0.69 µM), the MIC90 [4] was 1 µg/mL (≈ 0.69 µM) and the MIC50 [5] was 1 µg/mL (≈ 0.69 µM). It also gave an MIC90 [5] of 1 µg/mL (≈ 0.69 µM), an MIC50 [6] of 1 µg/mL (≈ 0.69 µM) and an MIC90 [6] of 2 µg/mL (≈ 1.38 µM). The MIC50 [7] was 0.5 µg/mL (≈ 0.345 µM), the MIC90 [7] was 1 µg/mL (≈ 0.69 µM) and the MIC50 [8] was over 32 µg/mL. The MIC90 [8] was over 32 µg/mL, the MIC [9] was over 32 µg/mL and the MIC50 [9] was over 32 µg/mL. It also gave an MIC90 [9] of over 32 µg/mL, an MIC [10] of 0.25 µg/mL (≈ 0.173 µM) and an MIC50 [10] of 0.25 µg/mL (≈ 0.173 µM). It also gave an MIC90 [10] of 0.5 µg/mL (≈ 0.345 µM), an MIC50 [11] of 0.12 µg/mL (≈ 0.0828 µM) and an MIC90 [11] of 0.25 µg/mL (≈ 0.173 µM). For the same compound, the MIC50 [12] was 0.25 µg/mL (≈ 0.173 µM), the MIC90 [12] was 0.25 µg/mL (≈ 0.173 µM) and the MIC50 [13] was 0.25 µg/mL (≈ 0.173 µM). For the same compound, the MIC90 [13] was 0.25 µg/mL (≈ 0.173 µM), the MIC50 [14] was 0.25 µg/mL (≈ 0.173 µM) and the MIC90 [14] was 0.25 µg/mL (≈ 0.173 µM). For the same compound, the MIC50 [15] was 0.5 µg/mL (≈ 0.345 µM), the MIC90 [15] was 4 µg/mL (≈ 2.76 µM) and the MIC50 [16] was 0.5 µg/mL (≈ 0.345 µM). It also gave an MIC90 [16] of 4 µg/mL (≈ 2.76 µM), an MIC50 [17] of 0.5 µg/mL (≈ 0.345 µM) and an MIC90 [17] of 4 µg/mL (≈ 2.76 µM). For the same compound, the MIC50 [18] was 0.5 µg/mL (≈ 0.345 µM), the MIC90 [18] was 4 µg/mL (≈ 2.76 µM) and the MIC [19] was 0.25 µg/mL (≈ 0.173 µM). The MIC50 [19] was 0.25 µg/mL (≈ 0.173 µM) and the MIC90 [19] was 0.5 µg/mL (≈ 0.345 µM).

With CC(=O)NC[C@H]1CN(c2ccc(N3CCOCC3)c(F)c2)C(=O)O1 [LINEZOLID] the MIC50 [1] was 2 µg/mL (≈ 5.93 µM), the MIC90 [1] was 4 µg/mL (≈ 11.9 µM) and the MIC50 [2] was 4 µg/mL (≈ 11.9 µM). The MIC90 [2] was 4 µg/mL (≈ 11.9 µM), the MIC [3] was 1 µg/mL (≈ 2.96 µM) and the MIC50 [3] was 1 µg/mL (≈ 2.96 µM). For the same compound, the MIC90 [3] was 2 µg/mL (≈ 5.93 µM), the MIC [4] was 1 µg/mL (≈ 2.96 µM) and the MIC50 [4] was 1 µg/mL (≈ 2.96 µM). The MIC90 [4] was 2 µg/mL (≈ 5.93 µM), the MIC [5] was 1 µg/mL (≈ 2.96 µM) and the MIC50 [5] was 1 µg/mL (≈ 2.96 µM). The MIC90 [5] was 2 µg/mL (≈ 5.93 µM), the MIC50 [6] was 2 µg/mL (≈ 5.93 µM) and the MIC90 [6] was 2 µg/mL (≈ 5.93 µM). The MIC50 [7] was 2 µg/mL (≈ 5.93 µM), the MIC90 [7] was 2 µg/mL (≈ 5.93 µM) and the MIC50 [8] was 2 µg/mL (≈ 5.93 µM). The MIC90 [8] was 2 µg/mL (≈ 5.93 µM), the MIC50 [9] was 2 µg/mL (≈ 5.93 µM) and the MIC90 [9] was 2 µg/mL (≈ 5.93 µM). The MIC50 [10] was 2 µg/mL (≈ 5.93 µM), the MIC90 [10] was 2 µg/mL (≈ 5.93 µM) and the MIC50 [11] was 0.5 µg/mL (≈ 1.48 µM). It also gave an MIC90 [11] of 1 µg/mL (≈ 2.96 µM), an MIC50 [12] of 0.5 µg/mL (≈ 1.48 µM) and an MIC90 [12] of 1 µg/mL (≈ 2.96 µM). For the same compound, the MIC50 [13] was 1 µg/mL (≈ 2.96 µM), the MIC90 [13] was 1 µg/mL (≈ 2.96 µM) and the MIC50 [14] was 1 µg/mL (≈ 2.96 µM). It also gave an MIC90 [14] of 1 µg/mL (≈ 2.96 µM), an MIC50 [15] of 2 µg/mL (≈ 5.93 µM) and an MIC90 [15] of 2 µg/mL (≈ 5.93 µM). It also gave an MIC50 [16] of 2 µg/mL (≈ 5.93 µM), an MIC90 [16] of 2 µg/mL (≈ 5.93 µM) and an MIC50 [17] of 2 µg/mL (≈ 5.93 µM). For the same compound, the MIC90 [17] was 2 µg/mL (≈ 5.93 µM), the MIC50 [18] was 2 µg/mL (≈ 5.93 µM) and the MIC90 [18] was 2 µg/mL (≈ 5.93 µM). It also gave an MIC50 [19] of 1 µg/mL (≈ 2.96 µM) and an MIC90 [19] of 2 µg/mL (≈ 5.93 µM).
